This passage reports IC50 and melting point results from patent US8030320B2, “Derivatives of 1-OXO-1,2-dihydroisoquinoline-5-carboxamides and of 4-OXO-3,4-dihydroquinazoline-8-carboxamides, preparation thereof and application thereof in therapeutics” (Sanofi-Aventis, priority 2007, dated 2011).

For data set [1], the target named is T1, purified recombinant form of human BACE1 aspartyl protease (Homo sapiens, UniProt P56817).
T1 construct: hexahistidine (His6) (C); made in house; host or cells: Drosophila cells
Nature of the data set: BACE-1 FRET assay, in vitro inhibition of β-secretase activity. The class given is biochemical. Conditions: peptide substrate 0.25 μM, enzyme 10 nM, sodium acetate buffer pH 4.5, 60 min, ambient temperature; read-out: IC50 (concentration of product giving 50% inhibition of the enzyme activity). As to the method: The tests consisted in measuring the in vitro inhibition of the β-secretase activity by the compounds of the invention, via the use of the “BACE-1 FRET Assay Kit, Red” available from PanVera-Invitrogen Inc. The β-secretase activity measured corresponds to that of a purified recombinant form of human BACE1 aspartyl protease (the latter comprising a hexahistidine tag at the C-terminal position) produced by expression in Drosophila cells. The purified enzyme is conditioned in TRIS buffer (18 mM) at pH 7.5 containing NaCl (0.45M), MnCl2 (0.9 mM), CaCl2 (0.9 mM), α-D-methylmannoside and 10% glycerol, and stored at −80° C. until use. The BACE1 activity is measured from the cleavage of a fluorogenic peptide substrate sold by Invitrogen (PanVera BACE1/β-secretase FRET assay kit, Red; reference P2985), based on the principle of fluorescence resonance energy transfer (FRET) and corresponding to the Rh-EVNLDAEFK-Quencher sequence; the cleavage of the peptide is measured from the increase of the fluorescent signal emitted by the rhodamine derivative (Rh). The test is carried out in a 96-well microplate in order to determine the inhibition of the enzyme activity by the products of the invention. […] When the incubation is finished, the fluorescence is measured in a spectrofluorimeter, at the excitation wavelength of about 543 nm and emission wavelength of about 585 nm. […]

One may read the melting point as the temperature of the solid-liquid transition.

Counter-ions that a name gives are not always drawn.

T1 sequence (P56817 46-501): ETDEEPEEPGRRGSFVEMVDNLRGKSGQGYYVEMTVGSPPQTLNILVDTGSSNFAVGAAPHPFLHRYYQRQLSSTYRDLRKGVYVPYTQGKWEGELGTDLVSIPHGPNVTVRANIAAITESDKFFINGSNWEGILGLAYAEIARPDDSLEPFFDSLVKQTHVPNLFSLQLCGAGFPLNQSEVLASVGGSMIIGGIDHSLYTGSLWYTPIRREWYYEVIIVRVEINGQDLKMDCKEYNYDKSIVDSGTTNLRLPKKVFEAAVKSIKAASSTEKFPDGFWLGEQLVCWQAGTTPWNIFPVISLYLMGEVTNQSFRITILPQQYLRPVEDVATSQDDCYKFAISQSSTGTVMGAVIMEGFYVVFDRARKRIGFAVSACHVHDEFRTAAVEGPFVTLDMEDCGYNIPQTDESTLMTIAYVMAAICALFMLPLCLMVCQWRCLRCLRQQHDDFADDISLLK

Turning to `CCCC(CCC)n1ccc2c(C(=O)N[C@@H](Cc3ccccc3)[C@H](O)CNCc3cccc(C(F)(F)F)c3)cccc2c1=O` [Compound 1, N-[(1S,2R)-1-benzyl-2-hydroxy-3-{[3-(trifluoromethyl)benzyl]-amino}propyl]-1-oxo-2-(1-propylbutyl)-1,2-dihydroisoquinoline-5-carboxamide hydrochloride (1:1)], the IC50 in data set [1] was 2.6 µM.
`CCCC(CCC)n1cnc2c(C(=O)N[C@@H](Cc3ccccc3)[C@H](O)CNCc3cccc(C(F)(F)F)c3)cccc2c1=O.Cl` [Compound 3, N-[(1S,2R)-1-benzyl-2-hydroxy-3-{[3-(trifluoromethyl)benzyl]-amino}propyl]-4-oxo-3-(1-propylbutyl)-3,4-dihydroquinazoline-8-carboxamide hydrochloride (1:1)] came in with a melting point of 152 °C. The IC50 in data set [1] is 0.83 µM.
